Experimental findings from PubChem BioAssay (NCI) are described below.

Among the test systems are A549 NSCLC; CAKI-1 renal; LOX IMVI melanoma; OVCAR-3 ovarian; SK-MEL-2 melanoma; SN12C renal; T-47D breast; U251 CNS; UACC-62 melanoma; UO-31 renal.
What all share (experiment): NCI anticancer screen, dose series, 48 h

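Growth conditions: 96-well plates. Treatment: test compound, 48 hours, 5 concentrations. Analysis: linear interpolation between bracketing concentrations; unreached endpoints set to highest concentration. At the GI50, growth is halved. At the TGI there is no net growth.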 Where a SMILES comes first, the peptide text is derived from it. [ ]: non-standard residue; d: D form. The star is where a group is joined. ξ: configuration not given here. ξF = NC(Cc1ccccc1)C(=O)O; Cbz = O=C(OCc1ccccc1)*; Aib = CC(C)(N)C(=O)O

On to `O=c1c2cc(I)ccc2nc(SCc2n[nH]c(=S)o2)n1Cc1ccccc1`, for which the TGI with A549 NSCLC worked out at 48.4 µM; in the assay on CAKI-1 renal, 22.4 µM; in the assay with LOX IMVI melanoma, 29.1 µM; in the assay on OVCAR-3 ovarian it was 31.1 µM; in the assay with SK-MEL-2 melanoma, 30.4 µM; in the assay with SN12C renal it was 27.6 µM. Besides, the TGI turned out to be 45.4 µM with T-47D breast, 31.4 µM in the assay with U251 CNS, 25.4 µM with UACC-62 melanoma and 3.43 µM in the assay on UO-31 renal.
Turning to `COc1cc(-c2n/c(=C\c3c(O)[nH]c4cc(Cl)ccc34)cc3c2=Nc2ccccc2-3)cc(OC)c1OC`, the GI50 with A549 NSCLC is 4.8 µM; in the assay with CAKI-1 renal it was 10.9 µM; in the assay with LOX IMVI melanoma it was 2.76 µM; in the assay with OVCAR-3 ovarian, 2.13 µM; in the assay on SK-MEL-2 melanoma, 2.51 µM; with SN12C renal, 4.15 µM. For the same compound, the GI50 with T-47D breast was 4.19 µM; in the assay with U251 CNS, 1.71 µM; with UACC-62 melanoma, 3.4 µM; with UO-31 renal, 18.3 µM. Moreover, the TGI with A549 NSCLC turned out to be 21.9 µM; with CAKI-1 renal, 60 µM; in the assay on LOX IMVI melanoma it was 16 µM; in the assay with OVCAR-3 ovarian it was 6.69 µM; in the assay with SK-MEL-2 melanoma, 12.3 µM; in the assay with SN12C renal, 26.1 µM. Also, the TGI is 18.5 µM with T-47D breast, 3.36 µM in the assay on U251 CNS, 14.1 µM in the assay with UACC-62 melanoma and more than 100 µM in the assay with UO-31 renal.
With `CC(C)(CCCCC(C)(C)C1NC(=O)N1)C1NC(=O)N1`, the TGI with A549 NSCLC, with CAKI-1 renal, with LOX IMVI melanoma, in the assay with SK-MEL-2 melanoma, with SN12C renal and in the assay on T-47D breast was more than 10 µM in each case. For the same compound, the TGI with U251 CNS, in the assay on UACC-62 melanoma and with UO-31 renal was more than 10 µM in each case.
Turning to `Cc1nn2c(C(=O)N/N=C/c3ccc([N+](=O)[O-])cc3)c(C)nc2s1`, the TGI in the assay on A549 NSCLC, in the assay on CAKI-1 renal, in the assay on LOX IMVI melanoma, with OVCAR-3 ovarian, with SN12C renal and with T-47D breast was more than 100 µM in each case. The TGI is 53.5 µM in the assay on U251 CNS, more than 100 µM with UACC-62 melanoma and more than 100 µM with UO-31 renal.
Take `NCCSCc1ccccc1Cl`: the TGI in the assay on A549 NSCLC is more than 100 µM; in the assay on CAKI-1 renal, more than 100 µM; in the assay with LOX IMVI melanoma, 66.1 µM; in the assay with OVCAR-3 ovarian, 82.9 µM; in the assay with SK-MEL-2 melanoma, 87.5 µM; with SN12C renal, more than 100 µM. In addition, the TGI with T-47D breast, in the assay on U251 CNS, with UACC-62 melanoma and in the assay with UO-31 renal was more than 100 µM in each case.
Consider `N#Cc1c(Cl)nc2ccccc2c1N=[N+]=[N-]`, for which the TGI with A549 NSCLC worked out at 35.3 µM; in the assay on CAKI-1 renal, 3.12 µM; in the assay on LOX IMVI melanoma, 3.47 µM; in the assay on OVCAR-3 ovarian it was 3.76 µM; in the assay with SK-MEL-2 melanoma it was 5.12 µM; in the assay with SN12C renal it was 10.7 µM. In addition, the TGI with T-47D breast came out at 5.83 µM; in the assay on U251 CNS it was 12.5 µM; in the assay with UACC-62 melanoma it was 7.14 µM; with UO-31 renal, 9.4 µM.
As to `Oc1ccccc1C1=NOC(c2ccc(C(F)(F)F)cc2)C1` (configuration not stated), the TGI in the assay with A549 NSCLC, in the assay on CAKI-1 renal, in the assay with LOX IMVI melanoma, with OVCAR-3 ovarian, in the assay on SK-MEL-2 melanoma and in the assay with SN12C renal was more than 50 µM each time. The TGI in the assay with T-47D breast is more than 38.1 µM; with U251 CNS, more than 50 µM; in the assay with UACC-62 melanoma it was more than 50 µM; in the assay with UO-31 renal it was more than 50 µM.
Turning to `COc1ccc(/C=C/C(=O)CC(=O)/C=C/c2ccc(OC)cc2)cc1`, the TGI in the assay on A549 NSCLC is more than 100 µM; in the assay on CAKI-1 renal, more than 100 µM; with LOX IMVI melanoma, 25.1 µM; in the assay with OVCAR-3 ovarian it was 75.5 µM; in the assay with SK-MEL-2 melanoma, more than 100 µM; in the assay on SN12C renal, more than 100 µM. For the same compound, the TGI in the assay with T-47D breast, in the assay on U251 CNS, in the assay with UACC-62 melanoma and in the assay on UO-31 renal was more than 100 µM throughout.
Take `COc1ccc(/C=C2\Sc3nnc(CNc4ccc(Cl)cc4)n3N=C2c2cc(F)c(Cl)cc2Cl)cc1OC`: the TGI with CAKI-1 renal was 80.5 µM; in the assay with LOX IMVI melanoma it was more than 100 µM; in the assay with OVCAR-3 ovarian, more than 100 µM; in the assay with SK-MEL-2 melanoma, more than 100 µM; in the assay on T-47D breast, more than 100 µM; with U251 CNS, more than 100 µM. Further, the TGI with UO-31 renal was more than 100 µM.
For `CN(C)S(=O)(=O)n1cnc(CO)c1`, the TGI in the assay with A549 NSCLC, in the assay with CAKI-1 renal, in the assay with LOX IMVI melanoma, in the assay with OVCAR-3 ovarian, with SK-MEL-2 melanoma and in the assay on SN12C renal was more than 100 µM each time. Moreover, the TGI in the assay on T-47D breast, in the assay with U251 CNS and in the assay with UO-31 renal was more than 100 µM in each case.
`CC(C)(C)OC/C=C1\C(=O)O[C@H]2C[C@@H](O[Si](C)(C)C(C)(C)C)C[C@@H]12`: the TGI in the assay on A549 NSCLC, with CAKI-1 renal, in the assay on LOX IMVI melanoma, with OVCAR-3 ovarian, with SK-MEL-2 melanoma and in the assay on SN12C renal was more than 100 µM in each case. In addition, the TGI with T-47D breast, in the assay with U251 CNS and in the assay with UO-31 renal was more than 100 µM throughout.
Turning to `Cc1ccc(N=NN(C)C(=O)C(C)N)cc1` (configuration not stated), the TGI in the assay on CAKI-1 renal, in the assay on LOX IMVI melanoma, in the assay with OVCAR-3 ovarian, in the assay on SK-MEL-2 melanoma, with SN12C renal and with T-47D breast was more than 100 µM in each case. Further, the TGI with U251 CNS, in the assay on UACC-62 melanoma and in the assay on UO-31 renal was more than 100 µM each time.
On to `COc1ccc(N=Nc2c(C)c(C#N)c(=S)n(C3OC(CO)C(O)C(O)C3O)c2C)cc1` (configuration not stated), for which the TGI was more than 100 µM in the assay with A549 NSCLC; more than 100 µM with CAKI-1 renal; more than 100 µM with LOX IMVI melanoma; more than 100 µM with OVCAR-3 ovarian; more than 100 µM in the assay with SK-MEL-2 melanoma; 79.8 µM with T-47D breast. In addition, the TGI with U251 CNS, with UACC-62 melanoma and in the assay with UO-31 renal was more than 100 µM each time.
Consider `COc1ccccc1N=N/C(=N\NC(=O)c1ccc(C)cc1)c1ccc(N(CCC#N)CCC#N)cc1C`, for which the TGI with A549 NSCLC is more than 100 µM; in the assay with CAKI-1 renal it was more than 100 µM; with LOX IMVI melanoma, more than 100 µM; in the assay with OVCAR-3 ovarian, 61.9 µM; in the assay on SK-MEL-2 melanoma, more than 100 µM; in the assay on SN12C renal, more than 100 µM. The TGI with T-47D breast, in the assay with U251 CNS and in the assay on UO-31 renal was more than 100 µM in each case.
Regarding `O=C(NCCN1CCCCC1)c1ccc(I)cc1`, the TGI in the assay on A549 NSCLC, in the assay on CAKI-1 renal, with LOX IMVI melanoma, in the assay with OVCAR-3 ovarian, with SK-MEL-2 melanoma and with SN12C renal was more than 100 µM throughout. The TGI in the assay with T-47D breast, in the assay on U251 CNS and in the assay on UO-31 renal was more than 100 µM in each case.
Turning to `COc1ccc(/C=C2/NC(=S)N=C2Cl)cc1`, the TGI in the assay on A549 NSCLC, in the assay with CAKI-1 renal, in the assay with LOX IMVI melanoma, in the assay with OVCAR-3 ovarian, in the assay on SK-MEL-2 melanoma and with SN12C renal was more than 100 µM in each case. Also, the TGI in the assay with T-47D breast, in the assay on U251 CNS and in the assay with UO-31 renal was more than 100 µM throughout.
Consider `O=C1NC(N2CCCCC2)=N/C1=C\c1ccccc1O`, for which the TGI in the assay with A549 NSCLC, in the assay with CAKI-1 renal, in the assay with LOX IMVI melanoma, in the assay with OVCAR-3 ovarian, in the assay on SK-MEL-2 melanoma and in the assay with SN12C renal was more than 100 µM throughout. In addition, the TGI in the assay on T-47D breast, in the assay on U251 CNS and in the assay on UO-31 renal was more than 100 µM each time.
Regarding `Fc1cccc(Cl)c1C1SCc2nc3cc4ccccc4cc3n21` (configuration not stated), the TGI with A549 NSCLC, with CAKI-1 renal, in the assay with LOX IMVI melanoma, in the assay with OVCAR-3 ovarian, in the assay on SK-MEL-2 melanoma and in the assay with SN12C renal was more than 100 µM each time. The TGI in the assay with T-47D breast, with U251 CNS and in the assay on UACC-62 melanoma was more than 100 µM each time.
Take `COC(=O)C(C)(C)NC(=O)C(Cc1ccccc1)NC(=O)C(C)(C)NC(=O)OCc1ccccc1` (configuration not stated) (Cbz-[Aib]-[ξF]-[Aib]-OMe): the TGI with A549 NSCLC, in the assay with CAKI-1 renal, with LOX IMVI melanoma, in the assay with OVCAR-3 ovarian, with T-47D breast and in the assay on U251 CNS was more than 100 µM each time. In addition, the TGI with UACC-62 melanoma and in the assay with UO-31 renal was more than 100 µM throughout.
`CC(=O)c1cccc(NC(=O)C(=O)C(c2cnc3ccc([N+](=O)[O-])cc3n2)[N+](=O)[O-])c1` (configuration not stated): the TGI with CAKI-1 renal, with LOX IMVI melanoma, in the assay with OVCAR-3 ovarian, in the assay on SK-MEL-2 melanoma, in the assay on SN12C renal and with T-47D breast was more than 100 µM each time. Besides, the TGI in the assay on U251 CNS, with UACC-62 melanoma and in the assay on UO-31 renal was more than 100 µM each time.
As for `CCOC(=O)c1c(-c2ccc(Br)cc2)ccn1C`, the TGI with A549 NSCLC, in the assay with CAKI-1 renal, in the assay on LOX IMVI melanoma, in the assay on OVCAR-3 ovarian, in the assay with SK-MEL-2 melanoma and in the assay with SN12C renal was more than 10 µM in each case. For the same compound, the TGI in the assay on T-47D breast, in the assay on U251 CNS and in the assay with UACC-62 melanoma was more than 10 µM each time.
